Experimental findings from ChEMBL document CHEMBL1201862, “PubChem BioAssay data set” (2004) are described below.

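Cells were grown in 96-well plates and exposed to each compound for 48 hours at five concentrations; endpoints were interpolated linearly between bracketing concentrations, or set to the highest concentration if not reached. At the GI50, growth is halved.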 The source made the active and inactive calls. No stated cut-off is given here; in the data, active = GI50 up to about 1.1 µM and inactive = higher.

Test systems include DLD-1; DMS-114; DMS-273; KM-20L2; LXFL 529; M19-MEL; RXF 631; SNB-78; XF498.
Common to all, as to experiment: growth of human tumour cells (NCI), 48 h

On to `COC(=O)c1nc(N)nc(O)c1CCCCCc1c(O)nc(N)nc1C(=O)OC`, for which the GI50 in the experiment on DLD-1, in the experiment on DMS-114, in the experiment with DMS-273, in the experiment on KM-20L2, in the experiment with LXFL 529 and in the experiment on M19-MEL was > 50 µM (inactive) in each case. In addition, the GI50 with RXF 631, in the experiment with SNB-78 and in the experiment on XF498 was > 50 µM (inactive) each time.

On to `CCn1c2ccccc2c2ccc3c(c21)C(=O)C=CC3=O`, for which the GI50 is 3.85 µM (inactive) in the experiment with DLD-1; 6.65 µM (inactive) with DMS-114; 17.2 µM (inactive) in the experiment on DMS-273; 1.93 µM (inactive) in the experiment with LXFL 529; 10.7 µM (inactive) with M19-MEL; 22 µM (inactive) in the experiment with SNB-78. In addition, in the experiment with XF498, the GI50 is 3.84 µM (inactive).

Turning to `C[C@]12CCC3[C@@H](CC[C@@H]4c5nonc5CC[C@]34C)C1C/C(=N/O)C2=O` (stereo partly drawn), the GI50 with DMS-114 is > 100 µM (inactive); with DMS-273 it was > 100 µM (inactive); in the experiment with KM-20L2 it was > 100 µM (inactive); in the experiment with LXFL 529, 18.6 µM (inactive); with M19-MEL it was > 100 µM (inactive); in the experiment on RXF 631 it was > 100 µM (inactive). Besides, the GI50 was > 100 µM (inactive) in the experiment on SNB-78 and 11.5 µM (inactive) with XF498.

As for `CCN(CC)c1c(C(=O)/C=C/c2ccc(F)cc2)c(-c2ccccc2)nn(C)c1=O`, the GI50 is 3.63 µM (inactive) with DLD-1; 5.32 µM (inactive) with DMS-114; 6.62 µM (inactive) in the experiment with DMS-273; 11.8 µM (inactive) in the experiment on KM-20L2; 4.6 µM (inactive) in the experiment on LXFL 529; 6.64 µM (inactive) in the experiment on M19-MEL. Besides, the GI50 with SNB-78 is 14.4 µM (inactive).

Take `COC(OC)c1cccnc1C`: the GI50 in the experiment with DLD-1, with DMS-114, in the experiment on DMS-273, with KM-20L2, with LXFL 529 and in the experiment with M19-MEL was > 100 µM (inactive) throughout. The GI50 in the experiment on RXF 631, with SNB-78 and in the experiment on XF498 was > 100 µM (inactive) in each case.

Consider `COc1cc(C(CC(OC)OC)=C(C#N)C#N)cc(OC)c1OC`, for which the GI50 with DLD-1 was 3.58 µM (inactive); in the experiment on DMS-114, 20.7 µM (inactive); in the experiment on DMS-273 it was 10.4 µM (inactive); with KM-20L2 it was 11.4 µM (inactive); in the experiment on LXFL 529, 11.4 µM (inactive); in the experiment on M19-MEL it was 12.2 µM (inactive). Further, the GI50 in the experiment with SNB-78 is 60.4 µM (inactive).

Regarding `C/C(CC(=O)Nc1cc(Cl)c(Cl)cc1Cl)=N\NS(=O)(=O)c1ccc(C)cc1`, the GI50 in the experiment on DLD-1 is 33.4 µM (inactive); in the experiment on DMS-114, 28.1 µM (inactive); with KM-20L2, 41.8 µM (inactive); with LXFL 529, 36.2 µM (inactive); in the experiment with M19-MEL, 32.7 µM (inactive); in the experiment on RXF 631, 44 µM (inactive). The values for the GI50 in the experiment with SNB-78 and in the experiment on XF498 were 29 µM (inactive) and 28.7 µM (inactive), respectively.

Turning to `CCN(CC)C(=O)Cc1c(C(=O)N(CC)CC)c(=O)nc2sccn12`, the GI50 in the experiment with DLD-1, in the experiment with DMS-114, in the experiment on DMS-273, in the experiment on KM-20L2, with LXFL 529 and in the experiment on M19-MEL was > 100 µM (inactive) throughout. Moreover, the GI50 in the experiment on XF498 was > 100 µM (inactive).

Regarding `CON(C)C(=O)CCCO`, the GI50 in the experiment with DLD-1, in the experiment with DMS-114, in the experiment with KM-20L2, with LXFL 529, in the experiment on M19-MEL and with RXF 631 was > 100 µM (inactive) in each case. In addition, the GI50 in the experiment with XF498 is > 100 µM (inactive).

For the compound `c1ccc2c(NCCCCCCNc3cccc4ccccc34)cccc2c1`, the GI50 is > 100 µM (inactive) in the experiment with DLD-1; 49.1 µM (inactive) in the experiment with DMS-114; > 100 µM (inactive) with DMS-273; > 100 µM (inactive) in the experiment on KM-20L2; > 100 µM (inactive) in the experiment with LXFL 529; > 100 µM (inactive) in the experiment on M19-MEL. For the same compound, the GI50 in the experiment on RXF 631, in the experiment with SNB-78 and in the experiment with XF498 was > 100 µM (inactive) in each case.

Take `COc1ccc(C(=O)O[C@H]2[C@@H]3C=CO[C@@H](OC4OC(CO)C(O)C(O)C4O)[C@@H]3[C@@]3(CO)O[C@@H]23)cc1O` (stereo partly drawn): the GI50 with DLD-1, in the experiment on DMS-114, in the experiment with DMS-273, in the experiment on KM-20L2, with LXFL 529 and in the experiment with M19-MEL was > 100 µM (inactive) in each case. The GI50 in the experiment with RXF 631, with SNB-78 and with XF498 was > 100 µM (inactive) in each case.

For the compound `Cc1c2ccccc2c(=O)n2c(-c3ccccn3)cccc12`, the GI50 with DLD-1 was > 100 µM (inactive); in the experiment with DMS-114 it was > 100 µM (inactive); in the experiment with DMS-273, > 100 µM (inactive); in the experiment with KM-20L2, > 100 µM (inactive); with M19-MEL, 78 µM (inactive); in the experiment on SNB-78, > 100 µM (inactive). The GI50 with XF498 is > 100 µM (inactive).

For `O=C(Nc1ccccc1-c1nc2ccccc2[nH]c1=O)c1ccccc1`, the GI50 in the experiment with DLD-1 is 29.2 µM (inactive); in the experiment with DMS-114 it was 19.5 µM (inactive); in the experiment with DMS-273, 22.9 µM (inactive); in the experiment on KM-20L2 it was 39.6 µM (inactive); in the experiment with LXFL 529, 24.6 µM (inactive); in the experiment on M19-MEL it was 32.5 µM (inactive). Moreover, the GI50 in the experiment with SNB-78 is 24 µM (inactive); in the experiment with XF498, 24.6 µM (inactive).

For the compound `C=CCC1C(=O)CC2(C)C(CC=C)C(=O)CC12C` (stereo not drawn), the GI50 in the experiment on DLD-1, in the experiment with DMS-273, with KM-20L2, with LXFL 529, in the experiment with M19-MEL and in the experiment with RXF 631 was > 100 µM (inactive) each time. The GI50 in the experiment on XF498 is > 100 µM (inactive).

With `COC(=O)/C(=N\O)C(C(=O)C=C(C)C)C(=O)C(=O)Nc1ccccc1C` (stereo not drawn), the GI50 in the experiment with DLD-1, with DMS-114, with DMS-273, with KM-20L2, in the experiment with LXFL 529 and with M19-MEL was > 100 µM (inactive) in each case. Also, the GI50 with SNB-78 and in the experiment with XF498 was > 100 µM (inactive) in each case.

With `O=Cc1c(O)ccc2ccc(O)c(-c3c(O)ccc4ccc(O)cc34)c12`, the GI50 with DLD-1 is > 100 µM (inactive); in the experiment on DMS-114, 96.2 µM (inactive); with DMS-273, > 100 µM (inactive); with KM-20L2, > 100 µM (inactive); in the experiment with LXFL 529, 75.3 µM (inactive); in the experiment with M19-MEL, > 100 µM (inactive). Besides, the GI50 with SNB-78 is > 100 µM (inactive).

With `Clc1ccc(Nc2nc3ccccc3nc2-c2cccs2)cc1Cl`, the GI50 in the experiment on DLD-1 was 36.7 µM (inactive); with DMS-273, 34 µM (inactive); in the experiment on KM-20L2, 34.6 µM (inactive); in the experiment on LXFL 529, 38.9 µM (inactive); with M19-MEL it was 57.8 µM (inactive); in the experiment with RXF 631 it was 27.8 µM (inactive). Besides, the results for the GI50 in the experiment on SNB-78 and with XF498 were 58.2 µM (inactive) and 62.1 µM (inactive), respectively.

Turning to `CCN1C(C)=NC2C(=O)c3ccccc3C(=O)C21` (stereo not drawn), the GI50 in the experiment on DMS-114 is 32.2 µM (inactive); in the experiment with DMS-273 it was 48.6 µM (inactive); in the experiment on KM-20L2, 27.2 µM (inactive); in the experiment with LXFL 529, 94.4 µM (inactive); in the experiment with M19-MEL, 34.8 µM (inactive); in the experiment on RXF 631, > 100 µM (inactive). Moreover, in the experiment on XF498, the GI50 was 42.5 µM (inactive).

As for `CS(=O)(=O)OCCN1CCN(C(=O)c2ccc(Cl)c3c(Nc4ccc(S(=O)(=O)N=C(N)N)cc4)c4ccccc4nc23)CC1`, the GI50 in the experiment with DLD-1, in the experiment with DMS-114, in the experiment on DMS-273, in the experiment with KM-20L2, in the experiment with M19-MEL and in the experiment with RXF 631 was > 100 µM (inactive) in each case. In the experiment with XF498, the GI50 is > 100 µM (inactive).

`CCN(CC)Cc1cc(Nc2ccnc3ccc4nn(C)nc4c23)ccc1O`: the GI50 with KM-20L2 is 6.89 µM (inactive); in the experiment with LXFL 529, 12.6 µM (inactive); with M19-MEL, 11.9 µM (inactive); in the experiment with RXF 631 it was 7.78 µM (inactive); in the experiment on SNB-78 it was 15.9 µM (inactive); with XF498, 11.8 µM (inactive).

Take `Cc1c(O)c(=O)ccn1C1OC(CO)C(O)C1O` (stereo not drawn): the GI50 in the experiment with DLD-1 was 91.8 µM (inactive); in the experiment on DMS-273, 82 µM (inactive); in the experiment on KM-20L2, 45 µM (inactive); with LXFL 529, > 100 µM (inactive); with M19-MEL it was > 100 µM (inactive); with SNB-78, > 100 µM (inactive). Also, the GI50 in the experiment on XF498 is 46.2 µM (inactive).

With `C/C1=C\[C@H](C)C[C@H](C)OC(=O)C[C@H](c2ccc(O)cc2)NC(=O)[C@@H](Cc2c(Br)[nH]c3ccccc23)N(C)C(=O)[C@H](C)NC(=O)[C@@H](C)C1` [JASPAMIDE], the GI50 was 0.843 µM (active) in the experiment on DLD-1; 0.516 µM (active) with DMS-114; 0.308 µM (active) with DMS-273; 0.34 µM (active) in the experiment on KM-20L2; 0.293 µM (active) in the experiment on LXFL 529; 0.789 µM (active) in the experiment with M19-MEL. Also, the GI50 in the experiment on RXF 631 is 0.298 µM (active); in the experiment on SNB-78, 0.374 µM (active); in the experiment with XF498, 0.226 µM (active).
